Key:
b-Raf = b-Raf (Homo sapiens (Human), UniProt P15056); test: Enzyme-inhibiting activity test of kinases other than Trk (selectivity experiment): b-Raf; type: biochemical; settings: concentration of 3 μM; read-out: Inhibition rate (%) b-Raf
Protocol: (§1) A test substance (the present compound) was dissolved in dimethylsulfoxide to prepare a 100-fold concentration of the test concentration, 3 μM. The solution was further diluted to 25-fold with an assay buffer (20 mM HEPES, 0.01% Triton X-100, 2 mM DTT, pH 7.5) to obtain a test substance solution. In a similar manner a positive control substance solution was prepared with a positive control substance.
(§2) A 4-times concentration solution (5 μL) of the test substance prepared with the assay buffer, 5 μL of a 4-times concentration solution of substrate/ATP/metal (Mg) and 10 μL of a 2-times concentration solution of kinase were mixed in a well of a polypropylene 384-well plate and allowed to react at room temperature for 1 hour. The reaction was terminated by adding 60 μL of a Termination Buffer (QuickScout Screening Assist MSA; Carna Biosciences). The substrate peptide and the phosphorylated peptide in the reaction solution were separated and quantified. The kinase reaction was assessed from the product ratio (P/(P+S)) calculated from the height (S) of the peak of the substrate peptide and the height (P) of the peak of the phosphorylated peptide. Other kinases used in the kinase selectivity experiments were, for example, b-Raf and KDR. The following Table 3 indicates substrates, substrate concentrations, ATP concentrations and positive control substances used in respective kinase enzyme inhibition activity tests.

KDR = KDR (Homo sapiens (Human), UniProt P35968); test: Enzyme-inhibiting activity test of kinases other than Trk (selectivity experiment): KDR; type: biochemical; settings: concentration of 3 μM; read-out: Inhibition rate (%) KDR
Chain of KDR (P35968 20-1356, species assumed): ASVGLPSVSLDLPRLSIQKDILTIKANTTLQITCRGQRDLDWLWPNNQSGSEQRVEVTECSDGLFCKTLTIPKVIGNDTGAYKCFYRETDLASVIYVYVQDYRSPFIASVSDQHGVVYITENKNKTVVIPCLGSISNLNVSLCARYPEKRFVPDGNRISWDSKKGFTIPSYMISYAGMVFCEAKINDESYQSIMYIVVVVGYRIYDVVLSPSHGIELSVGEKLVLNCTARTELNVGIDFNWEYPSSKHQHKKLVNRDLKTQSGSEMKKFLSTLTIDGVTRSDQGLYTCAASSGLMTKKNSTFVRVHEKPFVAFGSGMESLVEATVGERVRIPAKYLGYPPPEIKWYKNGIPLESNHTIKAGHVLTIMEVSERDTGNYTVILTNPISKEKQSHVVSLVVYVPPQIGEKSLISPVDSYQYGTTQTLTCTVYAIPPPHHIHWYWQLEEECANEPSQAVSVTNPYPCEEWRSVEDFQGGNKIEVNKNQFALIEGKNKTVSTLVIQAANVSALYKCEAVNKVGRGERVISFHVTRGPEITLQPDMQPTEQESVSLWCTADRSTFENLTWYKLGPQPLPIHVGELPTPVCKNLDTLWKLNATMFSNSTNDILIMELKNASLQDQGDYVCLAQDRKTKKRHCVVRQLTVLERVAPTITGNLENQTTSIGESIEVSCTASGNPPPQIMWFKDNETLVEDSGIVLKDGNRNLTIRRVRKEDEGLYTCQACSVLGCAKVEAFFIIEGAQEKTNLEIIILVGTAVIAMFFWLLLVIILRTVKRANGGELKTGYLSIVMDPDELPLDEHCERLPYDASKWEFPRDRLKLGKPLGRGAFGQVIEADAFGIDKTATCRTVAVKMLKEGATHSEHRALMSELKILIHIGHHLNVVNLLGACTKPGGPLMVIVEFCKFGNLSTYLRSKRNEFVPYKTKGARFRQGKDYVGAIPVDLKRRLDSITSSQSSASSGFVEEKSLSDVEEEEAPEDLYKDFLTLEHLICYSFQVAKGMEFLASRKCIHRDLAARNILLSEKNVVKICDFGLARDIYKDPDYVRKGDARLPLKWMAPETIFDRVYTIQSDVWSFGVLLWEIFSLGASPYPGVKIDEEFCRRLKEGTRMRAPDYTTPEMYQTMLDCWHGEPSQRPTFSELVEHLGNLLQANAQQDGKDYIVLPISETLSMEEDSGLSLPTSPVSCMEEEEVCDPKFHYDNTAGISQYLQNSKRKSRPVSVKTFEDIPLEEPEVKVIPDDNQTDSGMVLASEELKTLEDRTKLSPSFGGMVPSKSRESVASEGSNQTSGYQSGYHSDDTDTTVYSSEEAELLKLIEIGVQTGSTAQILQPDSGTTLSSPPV
Protocol: as §1, §2

[1] = tested on: sodium monoiodoacetate-induced model rats; test: Analgesic effect on sodium monoiodoacetate-induced model rats; type: in vivo, rat; settings: MIA-induced model rats
[2] = test substance orally twice a day day 14 to 23, day 24 3 hours before measurement, right hind limb weight load ratio, experiment with morphine as positive control
[3] = test substance orally twice a day day 14 to 23, day 24 3 hours before measurement, right hind limb weight load ratio, experiment with tramadol as positive control

Chain of b-Raf (P15056 whole entry, species assumed): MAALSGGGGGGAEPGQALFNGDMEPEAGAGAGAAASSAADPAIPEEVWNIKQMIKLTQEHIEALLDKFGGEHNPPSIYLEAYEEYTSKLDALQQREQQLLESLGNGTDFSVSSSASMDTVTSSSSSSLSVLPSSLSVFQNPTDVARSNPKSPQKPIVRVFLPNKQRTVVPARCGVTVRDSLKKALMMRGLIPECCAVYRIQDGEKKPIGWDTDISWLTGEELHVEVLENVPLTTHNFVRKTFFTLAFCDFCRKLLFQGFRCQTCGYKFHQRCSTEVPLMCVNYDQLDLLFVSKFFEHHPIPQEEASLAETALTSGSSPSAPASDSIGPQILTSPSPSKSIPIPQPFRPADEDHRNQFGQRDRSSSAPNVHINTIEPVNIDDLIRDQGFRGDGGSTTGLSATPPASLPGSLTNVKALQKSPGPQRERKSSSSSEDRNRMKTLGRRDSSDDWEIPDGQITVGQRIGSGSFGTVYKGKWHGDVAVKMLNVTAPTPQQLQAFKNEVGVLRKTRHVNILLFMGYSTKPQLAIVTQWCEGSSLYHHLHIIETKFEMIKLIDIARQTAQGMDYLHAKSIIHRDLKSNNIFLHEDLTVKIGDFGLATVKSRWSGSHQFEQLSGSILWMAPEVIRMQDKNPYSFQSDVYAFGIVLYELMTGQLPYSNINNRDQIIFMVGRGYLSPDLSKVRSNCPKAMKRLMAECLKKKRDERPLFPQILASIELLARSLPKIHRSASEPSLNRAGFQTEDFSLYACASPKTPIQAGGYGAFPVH

SMILES | inhibition at 3 µM (b-Raf) [%] | inhibition at 3 µM (KDR) [%] | Percent improvement (%) [1, 2] [%] | Percent improvement (%) [1, 3] [%] | Percent improvement (%) ([1]; 10 mg/kg subcutaneously 1 hour before measurement on day 24)
Nc1ncc(Cl)cc1-c1ccc(Oc2ncc(NC(=O)Nc3cc(C(F)(F)F)ccc3-n3ccc(C(F)(F)F)n3)cn2)cc1 [Example 8-2, 1-(2-(4-(2-amino-5-chloropyridin-3-yl)phenoxy)pyrimidin-5-yl)-3-(5-(trifluoromethyl)-2-(3-(trifluoromethyl)-1H-pyrazol-1-yl)phenyl)urea] | 21 | 0 | – | – | –
Nc1ncc(C(F)(F)F)cc1-c1ccc(Oc2ncc(NC(=O)Nc3cc(C(F)(F)F)ccc3-n3ccc(C(F)(F)F)n3)cn2)cc1 [Example 15-52, 1-(2-{4-[2-amino-5-(trifluoromethyl)-3-pyridinyl]phenoxyl}-5-pyrimidinyl)-3-{5-(trifluoromethyl)-2-[3-(trifluoromethyl)-1H-pyrazol-1-yl]phenyl}urea] | 20 | 0 | 60 | – | –
Cc1ccn2ncc(-c3ccc(Oc4ncc(NC(=O)Nc5cc(C(F)(F)F)ccc5-c5cccnc5)cn4)cc3)c2n1 [Example 21-65, 1-{2-[4-(5-methylpyrazolo[1,5-a]pyrimidin-3-yl)phenoxy]-5-pyrimidinyl}-3-[2-(3-pyridinyl)-5-(trifluoromethyl)phenyl]urea] | 58 | 19 | – | – | –
Cn1nccc1-c1ccc(C(F)(F)F)cc1NC(=O)Nc1cnc(Oc2ccc(-c3cc(Cl)cnc3N)cc2)nc1 [Example 13-1, 1-(2-(4-(2-amino-5-chloropyridin-3-yl)phenoxy)pyrimidin-5-yl)-3-(2-(1-methyl-1H-pyrazol-5-yl)-5-(trifluoromethyl)phenyl)urea] | 33 | 7.5 | – | – | –
COc1ccn2ncc(-c3ccc(Oc4ncc(NC(=O)Nc5cc(C(F)(F)F)ccc5-c5cccnc5)cn4)cc3)c2n1 [Example 21-9, 1-(2-(4-(5-methoxypyrazolo[1,5-a]pyrimidin-3-yl)phenoxy)pyrimidin-5-yl)-3-(2-(pyridin-3-yl)-5-(trifluoromethyl)phenyl)urea] | – | – | – | 64 | –
O=C(Nc1cnc(Oc2ccc(-c3cnn4ccc(N5CCC5)nc34)cc2)nc1)Nc1cc(C(F)(F)F)ccc1-c1cccnc1 [Example 21-1, 1-(2-(4-(5-(azetidin-1-yl)pyrazolo[1,5-a]pyrimidin-3-yl)phenoxy)pyrimidin-5-yl)-3-(2-(pyridin-3-yl)-5-(trifluoromethyl)phenyl)urea] | 36 | 1.5 | – | – | –
CCOc1ccc2ncc(-c3ccc(Oc4ncc(NC(=O)Nc5cc(C(F)(F)F)ccc5-c5cccnc5)cn4)cc3)n2n1 [Example 22-34, 1-{2-[4-(6-ethoxyimidazo[1,2-b]pyridazin-3-yl)phenoxy]-5-pyrimidinyl}-3-[2-(3-pyridinyl)-5-(trifluoromethyl)phenyl]urea] | 56 | 19 | – | – | –
Cc1ccccc1-c1ccc(C(F)(F)F)cc1NC(=O)Nc1cnc(Oc2ccc(-c3cnn4ccc(N(C)C)nc34)cc2)nc1 [Example 21-75, 1-(2-{4-[5-(dimethylamino)pyrazolo[1,5-a]pyrimidin-3-yl]phenoxyl}-5-pyrimidinyl)-3-[2′-methyl-4-(trifluoromethyl)-2-biphenylyl]urea] | 41 | 0 | – | – | –
CS(=O)(=O)c1ccc(C(F)(F)F)cc1NC(=O)Nc1cnc(Oc2ccc(-c3cc(Cl)cnc3N)cc2)nc1 [Example 15-104, 1-{2-[4-(2-amino-5-chloro-3-pyridinyl)phenoxy]-5-pyrimidinyl}-3-[2-(methylsulfonyl)-5-(trifluoromethyl)phenyl]urea] | 53 | 18 | 54 | – | –
Cc1cn(-c2ccc(C(F)(F)F)cc2NC(=O)Nc2cnc(Oc3ccc(-c4cc(Cl)cnc4N)cc3)nc2)nn1 [Example 8-1, 1-(2-(4-(2-amino-5-chloropyridin-3-yl)phenoxy)pyrimidin-5-yl)-3-(2-(4-methyl-1H-1,2,3-triazol-1-yl)-5-(trifluoromethyl)phenyl)urea] | 6.5 | 0 | – | 60 | –
Nc1ncc(Cl)cc1-c1ccc(Oc2ncc(NC(=O)Nc3ccc(C(F)(F)F)cc3Cl)cn2)cc1 [Example 15-6, 1-(2-(4-(2-amino-5-chloropyridin-3-yl)phenoxy)pyrimidin-5-yl)-3-(2-chloro-4-(trifluoromethyl)phenyl)urea] | 37 | 0 | – | 51 | –
Nc1ncc(F)cc1-c1ccc(Oc2ncc(NC(=O)Nc3cc(C(F)(F)F)ccc3-c3cccnc3)cn2)cc1 [Example 14-6, 1-(2-(4-(2-amino-5-fluoropyridin-3-yl)phenoxy)pyrimidin-5-yl)-3-(2-(pyridin-3-yl)-5-(trifluoromethyl)phenyl)urea] | 45 | 1.7 | 53 | – | –
Nc1ncc(Cl)cc1-c1ccc(Oc2ncc(NC(=O)Nc3ccc(C(F)(F)F)cc3-n3cccn3)cn2)cc1 [Example 15-4, 1-(2-(1H-pyrazol-1-yl)-4-(trifluoromethyl)phenyl)-3-(2-(4-(2-amino-5-chloropyridin-3-yl)phenoxy)pyrimidin-5-yl)urea] | 0 | 0 | – | – | –
Nc1ncc(F)cc1-c1ccc(Oc2ncc(NC(=O)Nc3cc(C(F)(F)F)ccc3-n3ccnn3)cn2)cc1 [Example 14-5, 1-(2-(1H-1,2,3-triazol-1-yl)-5-(trifluoromethyl)phenyl)-3-(2-(4-(2-amino-5-fluoropyridin-3-yl)phenoxy)pyrimidin-5-yl)urea] | 13 | 0 | – | 47 | –
CN(C)c1ccn2ncc(-c3ccc(Oc4ncc(NC(=O)Nc5cc(C(F)(F)F)ccc5-c5ccccc5)cn4)cc3)c2n1 [Example 21-70, 1-(2-{4-[5-(dimethylamino)pyrazolo[1,5-a]pyrimidin-3-yl]phenoxyl}-5-pyrimidinyl)-3-[4-(trifluoromethyl)-2-biphenylyl]urea] | 19 | 0 | 61 | – | –
Nc1ncc(Cl)cc1-c1ccc(Oc2ncc(NC(=O)Nc3cc(Cl)ccc3-n3ccc(C(F)(F)F)n3)cn2)cc1 [Example 15-71, 1-{2-[4-(2-amino-5-chloro-3-pyridinyl)phenoxy]-5-pyrimidinyl}-3-{5-chloro-2-[3-(trifluoromethyl)-1H-pyrazol-1-yl]phenyl}urea] | 40 | 0 | – | – | –
CS(=O)(=O)c1ccc(C(F)(F)F)cc1NC(=O)Nc1cnc(Oc2ccc(-c3cc(F)cnc3N)cc2)nc1 [Example 15-96, 1-{2-[4-(2-amino-5-fluoro-3-pyridinyl)phenoxy]-5-pyrimidinyl}-3-[2-(methylsulfonyl)-5-(trifluoromethyl)phenyl]urea] | 22 | 2 | – | – | –
CCNc1ccn2ncc(-c3ccc(Oc4ncc(NC(=O)Nc5cc(C(F)(F)F)ccc5-c5cccc(C)c5)cn4)cc3)c2n1 [Example 21-67, 1-(2-{4-[5-(ethylamino)pyrazolo[1,5-a]pyrimidin-3-yl]phenoxyl}-5-pyrimidinyl)-3-[3′-methyl-4-(trifluoromethyl)-2-biphenylyl]urea] | 19 | 0 | – | – | –
Nc1ncc(F)cc1-c1ccc(Oc2ncc(NC(=O)Nc3cc(C(F)(F)F)ccc3-c3ccccc3)cn2)cc1 [Example 15-58, 1-{2-[4-(2-amino-5-fluoro-3-pyridinyl)phenoxy]-5-pyrimidinyl}-3-[4-(trifluoromethyl)-2-biphenylyl]urea] | 30 | 0 | – | – | –
Cn1nccc1-c1ccc(C(F)(F)F)cc1NC(=O)Nc1cnc(Oc2ccc(-c3cnn4ccc(N5CCC5)nc34)cc2)nc1 [Example 21-2, 1-(2-(4-(5-(azetidin-1-yl)pyrazolo[1,5-a]pyrimidin-3-yl)phenoxy)pyrimidin-5-yl)-3-(2-(1-methyl-1H-pyrazol-5-yl)-5-(trifluoromethyl)phenyl)urea] | 30 | 1 | – | – | –
CN(C)S(=O)(=O)c1ccc(C(F)(F)F)cc1NC(=O)Nc1cnc(Oc2ccc(-c3cc(C(F)(F)F)cnc3N)cc2)nc1 [Example 15-105, 2-{[(2-{4-[2-amino-5-(trifluoromethyl)-3-pyridinyl]phenoxyl}-5-pyrimidinyl)carbamoyl]amino}-N,N-dimethyl-4-(trifluoromethyl)benzenesulfonamide] | 26 | 0 | – | – | –
COc1cccc(C2(O)CCCCC2CN(C)C)c1 (centres unmarked) [Tramadol, tramadol, reference compound] | – | – | – | – | 43
O=C(Nc1cnc(Oc2ccc(-c3cnn4cccnc34)cc2)nc1)Nc1cc(C(F)(F)F)ccc1-c1cccnc1 [Example 21-13, 1-(2-(4-(pyrazolo[1,5-a]pyrimidin-3-yl)phenoxy)pyrimidin-5-yl)-3-(2-(pyridin-3-yl)-5-(trifluoromethyl)phenyl)urea] | – | – | – | 66 | –

Source: patent publication US10300060B2, “Trk-inhibiting compound” (ONO PHARMACEUTICAL CO., LTD., priority 2013, dated 2019)
